Measured values: US5407946A, “Pyrrolidine compounds which are useful as thromboxane AZ-inhibitors” (Adir et Compagnie, priority 1992, dated 1995)
pIC50: −log10 of the molar value.

Legend:
thromboxane receptors = biological target: T1, thromboxane receptors (Cavia porcellus, UniProt A0A286Y4I8); test: IC50 on the tracheal pressure in guinea pigs (bronchoconstriction induced by U46619 in vivo); conditions: guinea pig, iv, 5 min; anesthetized guinea pigs, antagonist injected 5 minutes before U46619 (2 μg/kg i.v.), jugular vein; read-out: IC50, antagonist dose which inhibits by 50% the increase in tracheal pressure caused by U46619
T1 construct: U46619 causes a bronchoconstriction which results in an increase in tracheal pressure; from tissue; host or cells: whole anesthetized guinea pig (in vivo, airways)
T1 sequence (A0A286Y4I8 1-347): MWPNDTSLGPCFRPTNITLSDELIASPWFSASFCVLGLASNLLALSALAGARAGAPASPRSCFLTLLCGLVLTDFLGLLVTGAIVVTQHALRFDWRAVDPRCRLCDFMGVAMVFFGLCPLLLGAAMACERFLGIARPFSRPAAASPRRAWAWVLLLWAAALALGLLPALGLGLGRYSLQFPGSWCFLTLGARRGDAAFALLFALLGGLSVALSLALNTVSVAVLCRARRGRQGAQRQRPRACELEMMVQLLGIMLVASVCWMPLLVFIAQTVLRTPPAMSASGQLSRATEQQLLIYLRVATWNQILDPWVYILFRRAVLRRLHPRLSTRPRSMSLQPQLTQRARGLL
Excerpt: Male albino guinea pigs (350-400 g), subjected to an 18-hour water diet, are anesthetized with ethylcarbamate (1.25 g/kg i.p.). A catheter is introduced into the carotid artery in order to measure the blood pressure by means of a pressure cell. A second catheter is introduced introduced into the jugular vein and is used for injecting the pharmacological substances. The trachea is cannulated and the guinea pig is placed under assisted respiration by means of a respirator. The temperature of the animal is kept at 37° C. by means of a thermostated cover. A needle pricked into the tracheal cannula is connected to a pressure cell and allows the tracheal pressure to be recorded. The guinea pigs are pretreated with d-tubocurarine (1 mg/kg i.v.) and with indomethacin (10 mg/kg i.v.). Injected at a dose of 2 μg/kg i.v., U46619 causes a bronchoconstriction which results in an increase in tracheal pressure and induces an increase in blood pressure. The responses to U46619 are reversible and reproducible if the injections are performed every 10 minutes.
The antagonists of thromboxane receptors are injected 5 minutes before the injections of U46619. The antagonist dose which inhibits by 50% the increase in tracheal pressure caused by U46619 is determined (IC50).

TXA2 receptors [1] = biological target: T2, TXA2 receptors (Cavia porcellus, UniProt A0A286Y4I8); test: Determination of the pA2 values on guinea pig trachea (contractions caused by U46619); format: cell-based; conditions: guinea pig tracheal rings, 37° C., agonist U46619 10^-9 M to 10^-5 M, antagonist contact 20 minutes; read-out: pA2 (negative logarithm of the concentration of antagonist in the presence of which twice the amount of agonist is required for the same effect) (converted)
T2 construct: the trachea is rapidly removed and then cut out into rings containing two cartilages; from tissue; host or cells: guinea pig trachea rings
T2 sequence (A0A286Y4I8 1-347): T1 sequence (A0A286Y4I8 1-347)
Procedure: 400-500-gram albino male guinea pigs were sacrificed by striking the nape of the neck and by pulling the neck. The throat is cut and the trachea is rapidly removed and then cut out into rings containing two cartilages. These rings are mounted between two hooks in cuvettes thermostated at 37° C., containing physiological saline (composition in mM: 118 NaCl; 25 NaHCO3; 10 glucose; 4.7 KCl; 1.25 CaCl2; 1.19 MgSO4; 1.14 KH2 PO4).
The physiological saline is bubbled with a mixture of 95% O2 -5% CO2. The bottom hook constitutes the fixed point while the upper hook is connected to an isometric force sensor. The tissues are placed under a basal tension of 3.5 grams. The pharmacological substances studied are prepared immediately before use. The drugs are solubilized in water or in dimethyl sulfoxide.
After mounting, the preparations are allowed to stand for 90 minutes, rinsings being carried out every 30 minutes. After readjusting the basal tension, a contraction generated by a single dose of agonist (U46619; 10^-5 M) is generated in order to stabilize subsequent contractions. After washing and returning to the base line, a first effect/concentration curve is produced by the addition of cumulative doses of U46619 (10^-9 M to 10^-5 M; the interval between the doses is a semilog). This first experiment makes it possible to calculate the effective concentration 50% (EC50) "control".
This EC50 is routinely calculated in the following manner: the tension values are first converted to percentages relative to the maximum effect, these percentages are then plotted on a graph with the percentages on the y-axis and the log(concentration) values on the x-axis. A linear regression is then performed on the points between 10% and 90% (which corresponds to the linear portion of the sigmoid curve). The concentration corresponding to half maximum effect (50%) can be easily calculated by means of the parameters of the straight line.
After washing and returning to the base line, the organ is placed in contact with the antagonist ([…]) for 20 minutes. A second effect/concentration curve is then produced in the presence of the antagonist and the "treated" EC50 can then be calculated. All the elements required for calculating the pA2 (competitive antagonism) or the pD2 (noncompetitive antagonism) are thus available.
The pA2 (which represents the negative logarithm of the concentration of antagonist in the presence of which twice the amount of agonist is required in order to obtain the same effect) is determined by plotting on a graph the log((L/l)-1) values relative to the log(concentration of antagonist), with L=effect in the presence of antagonist and 1=control effect. In this test, the pA2 values for the compounds of Examples 14 and 18 are as follows: […]

TXA2 receptors [2] = biological target: T3, TXA2 receptors (Oryctolagus cuniculus, UniProt Q6WQI8); test: Platelet aggregation induced by U46619 in rabbit platelet-rich plasma (PRP); format: cell-based; conditions: 37° C., antagonist added 3 min before U46619 (1.2 μM), read-out: IC50, concentration which induces 50% inhibition of the aggregation response induced by U46619
T3 construct: citrated platelet-rich plasma, U46619-induced aggregation
T3 sequence (Q6WQI8 1-233): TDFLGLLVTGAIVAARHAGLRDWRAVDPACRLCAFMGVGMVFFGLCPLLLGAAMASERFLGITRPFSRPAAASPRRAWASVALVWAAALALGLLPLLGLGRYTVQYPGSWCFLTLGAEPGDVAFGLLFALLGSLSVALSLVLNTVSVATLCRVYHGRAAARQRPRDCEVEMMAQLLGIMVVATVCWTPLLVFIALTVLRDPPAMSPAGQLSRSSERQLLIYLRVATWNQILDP
Procedure: The rabbits (2-3 kg) are anesthetized with sodium pentobarbital (30 mg/kg i.v.). After cannulation of the left carotid artery, the blood is collected over sodium citrate (0.109 M) (1 vol. of citrate per 9 vol. of blood).
The plasma which is high in platelets (PRP) is obtained by centrifugation (20° C.) at 250 g for 20 minutes and the plasma which is low in platelets (PPP) by centrifugation at 1000 g (10 min). The number of platelets (PL) in the PRP is adjusted to between 300-350,000 pl/mm^3 by dilution with autologous PPP. The PRP is stored at room temperature up to the time of the test and is used within 4 hours following the collection. Platelet aggregation is performed at 37° C. in glass tubes siliconized by means of an aggregometer. The PRP and PLs are stirred at 1000 rpm (revolution per minute). In order to study the activity of the thromboxane antagonists, the PRP is incubated for 1 min at 37° C., and the antagonist is then added for a period of 3 min before adding the agonist U46619 (1.2 μM). The final volume of the cuvette is then 250 μl. The extent of platelet aggregation is determined by measuring the maximum amplitude of the aggregation plots and is expressed as a percentage of light transmission (% T). The activity of the antagonists is expressed as IC50, that is to say the concentration of the substance which induces 50% inhibition of the aggregation response induced by U46619.

Compound | ED50 (thromboxane receptors) [mg/kg] | Kb (TXA2 receptors [1]) [nM] | pIC50 (TXA2 receptors [2])
O=C(O)CCC/C=C\[C@@H]1CN(Cc2ccccc2)C[C@@H]1c1ccccc1O (relative stereo) [Example 13, (5Z) -6-[(3α,4α) -1-Benzyl-4-(2-hydroxyphenyl)pyrrolidin-3-yl]hex-5-enoic acid] | 2.28 |  | 
O=C(O)CCC/C=C\C[C@@H]1CN(Cc2ccccc2)C[C@@H]1c1ccccc1O (relative stereo) [Example 14, (5Z)-7-[(3α,4α)-1-Benzyl-4-(2-hydroxyphenyl)pyrrolidin-3-yl]hept-5-enoic acid] | 1.02 | 282 | 
O=C(O)CC/C=C\C[C@@H]1CN(Cc2ccccc2)C[C@@H]1c1ccccc1O (relative stereo) [Example 15, (4Z) -6[(3α,4α) -1-Benzyl-4-(2-hydroxyphenyl)pyrrolidin-3-yl]hex-4-enoic acid] | 0.177 |  | 
O=C(O)CC/C=C\C[C@@H]1CN(S(=O)(=O)c2ccc(Cl)cc2)C[C@H]1c1ccccc1O (relative stereo) [Example 18, (4Z)-6-[(3α, 4β)-1-(4-Chlorophenylsulfonyl)-4-(2-hydroxyphenyl)pyrrolidin-3-yl]hex-4-enoic acid] | 0.03 | 7.94 | 5.27
CC(C)C(=O)N1C[C@@H](C/C=C\CCC(=O)O)[C@@H](c2ccccc2O)C1 (relative stereo) [Example 19] | 0.1 | 200 | 
CC(C)C(=O)N1C[C@@H](C/C=C\CCC(=O)O)[C@H](c2ccccc2O)C1 (relative stereo) [Example 20, (4Z)-6-[(3α,4β)-1-Isobutyroyl-4-(2-hydroxyphenyl)pyrrolidin-3-yl]hex-4-enoic acid] | 1.31 |  | 
O=C(O)CC/C=C\C[C@H]1CN(Cc2cccnc2)C[C@H]1c1ccccc1O (relative stereo) [Example 21, (4Z)-6-[(3α, 4α)-4-(2-hydroxyphenyl)-1-[(3-pyridyl)methyl]pyrrolidin-3-yl]hex-4-enoic acid] | 1.03 | 1580 | 
O=C(O)CC/C=C\C[C@@H]1CN(C(=O)Nc2ccccc2)C[C@@H]1c1ccccc1O (relative stereo) [Example 22, (4Z)-6-[(3α,4α)-1-Phenylaminocarbonyl-4-(2-hydroxyphenyl)pyrrolidin-3-yl]hex-4-enoic acid] | 1.21 |  | 5.40
CCCCCCC(=O)N1C[C@@H](C/C=C\CCC(=O)O)[C@@H](c2ccccc2O)C1 (relative stereo) [Example 23, (4Z)-6-[(3α,4α)-1-Heptanoyl-4-(2-hydroxyphenyl)pyrrolidin-3-yl]hex-4-enoic acid] | 0.43 | 20 | 
O=C(O)CC/C=C\C[C@@H]1CN(S(=O)(=O)c2cccc3cnccc23)C[C@@H]1c1ccccc1O (relative stereo) [Example 24, (4Z)-6-[(3α,4α)-1-[(Isoquinol-5-yl)sulfonyl]-4-(2-hydroxyphenyl)pyrrolidin-3-yl]hex-4-enoic acid] | 0.01 | 0.316 | 6.10
O=C(O)CC/C=C\C[C@@H]1CN(S(=O)(=O)c2cccc3cnccc23)C[C@H]1c1ccccc1O (relative stereo) [Example 25, (4Z)-6-[(3α,4β)-1-[(Isoquinol-5-yl)sulfonyl]-4-(2-hydroxyphenyl)pyrrolidin-3-yl]hex-4-enoic acid] | 0.06 |  | 5.30
O=C(O)CC/C=C\C[C@@H]1CN(S(=O)(=O)c2cccc3cccnc23)C[C@@H]1c1ccccc1O (relative stereo) [Example 27, (4Z)-6-[(3α,4α)-1-[(Quinol-8-yl)sulfonyl]-4-(2-hydroxyphenyl)pyrrolidin-3-yl]hex-4-enoic acid] | 0.03 |  | 
O=C(O)CC/C=C\C[C@@H]1CN(S(=O)(=O)c2cccc3ccccc23)C[C@@H]1c1ccccc1O (relative stereo) [Example 28] | 0.01 | 1.58 | 6.30
O=C(O)CC/C=C\C[C@@H]1CN(S(=O)(=O)c2ccc3ccccc3c2)C[C@@H]1c1ccccc1O (relative stereo) [Example 29] | 0.11 |  | 
O=C(O)CCC/C=C\C[C@@H]1CN(S(=O)(=O)c2cccc3cnccc23)C[C@@H]1c1ccccc1O (relative stereo) [Example 30, (5Z-7-[(3α,4α)-1-[(Isoquinolyl-5-yl)sulfonyl]-4-(2-hydroxyphenyl)pyrrolidin-3-yl)]hept-5-enoic acid] | 0.08 |  | 6.30
